This note sets out measurements from ChEMBL document CHEMBL2146453, “Synthesis of novel ursolic acid heterocyclic derivatives with improved abilities of antiproliferation and induction of p53, p21waf1 and NOXA in pancreatic cancer cells” (Bioorg Med Chem, 2012).

Assay [1] deals with ASPC1. The assay is described as follows: Cytotoxicity against human AsPC1 cells after 72 hrs by MTT assay. The format is functional, cell-based. The note with it: ASPC1, 72 h. (In general: Tetrazolium dyes change colour on reduction, which living cells bring about.)
In another assay the test system is PANC-1. Briefly: Cytotoxicity against human PANC1 cells after 72 hrs by MTT assay. Type of assay: functional, cell-based. The note with it: PANC-1, 72 h.
Another assay deals with MIA PaCa-2. The assay is described as follows: Cytotoxicity against human MIAPaCa2 cells after 72 hrs by MTT assay. The note with it: MIA PaCa-2, 72 h. The format is functional, cell-based.
Another assay relates to HepG2. Briefly: Cytotoxicity against human HepG2 cells after 72 hrs by MTT assay. The note with it: HepG2, 72 h. Type of assay: functional, cell-based.
The subject of the next assay is MCF7. Briefly: Cytotoxicity against human MCF7 cells after 72 hrs by MTT assay. Type of assay: functional, cell-based. The note with it: MCF7, 72 h.
For another assay, the system named is A549. Briefly: Cytotoxicity against human A549 cells after 72 hrs by MTT assay. The note with it: A549, 72 h. Type of assay: functional, cell-based.
For another assay, the system named is PC-3. The assay is described as follows: Cytotoxicity against human PC3 cells after 72 hrs by MTT assay. Type of assay: functional, cell-based. The note with it: PC-3, 72 h.
The test system of assay [2] is ASPC1. Briefly: Ratio of ursolic acid IC50 to compound IC50 for human AsPC1 cells. Type of assay: functional.
Assay [3] concerns ASPC1. The assay is described as follows: Cell cycle arrest in human AsPC1 cells assessed as G1 phase cells at 6 uM after 24 hrs by flow cytometric analysis (reference value: 25.4%). Type of assay: functional. In general terms: A flow cytometer gives signals particle by particle.
For assay [4], the system named is ASPC1. Briefly: Cell cycle arrest in human AsPC1 cells assessed as G1 phase cells at 8 uM after 24 hrs by flow cytometric analysis (reference value: 25.4%). The format is functional.
Assay [5] concerns ASPC1. Briefly: Cell cycle arrest in human AsPC1 cells assessed as G1 phase cells at 4 uM after 24 hrs by flow cytometric analysis (reference value: 25.4%). Type of assay: functional.
Assay [6] concerns ASPC1. Briefly: Induction of apoptosis in human AsPC1 cells assessed as sub-G1 phase cells at 2 uM after 24 hrs by flow cytometric analysis (reference value: 1%). Type of assay: functional.
For assay [7], the system named is ASPC1. Briefly: Induction of apoptosis in human AsPC1 cells assessed as sub-G1 phase cells at 4 uM after 24 hrs by flow cytometric analysis (reference value: 1%). The format is functional.
Assay [8] has as its system ASPC1. The assay is described as follows: Induction of apoptosis in human AsPC1 cells assessed as sub-G1 phase cells at 6 uM after 24 hrs by flow cytometric analysis (reference value: 1%). Type of assay: functional.
For assay [9], the system named is ASPC1. Briefly: Induction of apoptosis in human AsPC1 cells assessed as sub-G1 phase cells at 8 uM after 24 hrs by flow cytometric analysis (reference value: 1%). Type of assay: functional.
In assay [10] the test system is ASPC1. The assay is described as follows: Induction of apoptosis in human AsPC1 cells assessed as sub-G1 phase cells at 10 uM after 24 hrs by flow cytometric analysis (reference value: 1%). Type of assay: functional.
For assay [11], the system named is ASPC1. The assay is described as follows: Cell cycle arrest in human AsPC1 cells assessed as G1 phase cells at 2 uM after 24 hrs by flow cytometric analysis (reference value: 25.4%). The format is functional.
The test system of assay [12] is ASPC1. The assay is described as follows: Cell cycle arrest in human AsPC1 cells assessed as G1 phase cells at 10 uM after 24 hrs by flow cytometric analysis (reference value: 25.4%). The format is functional.
Assay [13] concerns ASPC1. Briefly: Cell cycle arrest in human AsPC1 cells assessed as S phase cells at 2 uM after 24 hrs by flow cytometric analysis (reference value: 12.6%). Type of assay: functional.
Assay [14] has as its system ASPC1. The assay is described as follows: Cell cycle arrest in human AsPC1 cells assessed as S phase cells at 4 uM after 24 hrs by flow cytometric analysis (reference value: 12.6%). Type of assay: functional.
For assay [15], the system named is ASPC1. The assay is described as follows: Cell cycle arrest in human AsPC1 cells assessed as S phase cells at 6 uM after 24 hrs by flow cytometric analysis (reference value: 12.6%). The format is functional.
The test system of assay [16] is ASPC1. Briefly: Cell cycle arrest in human AsPC1 cells assessed as S phase cells at 8 uM after 24 hrs by flow cytometric analysis (reference value: 12.6%). The format is functional.
For assay [17], the system named is ASPC1. Briefly: Cell cycle arrest in human AsPC1 cells assessed as S phase cells at 10 uM after 24 hrs by flow cytometric analysis (reference value: 12.6%). The format is functional.
The test system of assay [18] is ASPC1. The assay is described as follows: Cell cycle arrest in human AsPC1 cells assessed as G2/M phase cells at 2 uM after 24 hrs by flow cytometric analysis (reference value: 20.7%). The format is functional.
Assay [19] has as its system ASPC1. The assay is described as follows: Cell cycle arrest in human AsPC1 cells assessed as G2/M phase cells at 4 uM after 24 hrs by flow cytometric analysis (reference value: 20.7%). Type of assay: functional.
Assay [20] relates to ASPC1. The assay is described as follows: Cell cycle arrest in human AsPC1 cells assessed as G2/M phase cells at 6 uM after 24 hrs by flow cytometric analysis (reference value: 20.7%). The format is functional.
Assay [21] relates to ASPC1. The assay is described as follows: Cell cycle arrest in human AsPC1 cells assessed as G2/M phase cells at 8 uM after 24 hrs by flow cytometric analysis (reference value: 20.7%). Type of assay: functional.
The test system of assay [22] is ASPC1. The assay is described as follows: Cell cycle arrest in human AsPC1 cells assessed as G2/M phase cells at 10 uM after 24 hrs by flow cytometric analysis (reference value: 20.7%). Type of assay: functional.
For assay [23], the system named is ASPC1. The assay is described as follows: Upregulation of p21 in human AsPC1 cells at 6 to 10 uM after 24 hrs by Western blot analysis. Type of assay: functional, cell-based.
Assay [24] has as its system ASPC1. The assay is described as follows: Upregulation of NOXA in human AsPC1 cells at 6 to 10 uM after 24 hrs by Western blot analysis. The format is functional, cell-based.
For assay [25], the system named is ASPC1. The assay is described as follows: Downregulation of Mcl1 in human AsPC1 cells at 2 to 10 uM after 24 hrs by Western blot analysis. The format is functional, cell-based.
For assay [26], the system named is ASPC1. The assay is described as follows: Upregulation of p53 in human AsPC1 cells at 2 to 10 uM after 24 hrs by Western blot analysis. Type of assay: functional, cell-based. On the technique in general: Immunoblotting shows a protein as a band on a membrane.

Calls of active or inactive are those of the source. The calls are words filed in the database; no cut-off is given here.

Take `COC(=O)[C@]12CC[C@@H](C)[C@H](C)[C@H]1C1=CC[C@@H]3[C@@]4(C)C/C(=C/n5ccnc5)C(=O)C(C)(C)[C@@H]4CC[C@@]3(C)[C@]1(C)CC2`: the IC50 is 5.8 µM with ASPC1 [1]; 5.1 µM with PANC-1; 7.3 µM in the assay on MIA PaCa-2; 2 µM in the assay with HepG2; 5.3 µM in the assay with MCF7; 5.6 µM in the assay on A549. This molecule yielded an IC50 in the assay with PC-3 of 6.8 µM.
Take `COC(=O)[C@]12CC[C@@H](C)[C@H](C)[C@H]1C1=CC[C@@H]3[C@@]4(C)C/C(=C/n5cnnc5)C(=O)C(C)(C)[C@@H]4CC[C@@]3(C)[C@]1(C)CC2`: the IC50 in the assay with ASPC1 [1] is 1.9 µM; in the assay with PANC-1, 3.5 µM; in the assay with MIA PaCa-2 it was 4 µM; with HepG2 it was 3.2 µM; in the assay on MCF7, 2.3 µM; in the assay with A549, 4.9 µM. Moreover, the IC50 with PC-3 is 3 µM. The “Ratio IC50” value with ASPC1 [2] was 7. Moreover, the Activity in the assay on ASPC1 [3] came to 36.6%; with ASPC1 [4], 31.9%; in the assay on ASPC1 [5], 27.9%; in the assay with ASPC1 [6], 0.7%; in the assay on ASPC1 [7], 0.5%; in the assay with ASPC1 [8], 1.2%. In addition, the Activity with ASPC1 [9] was found to be 3.4%; with ASPC1 [10], 13.2%; with ASPC1 [11] it was 23.9%; in the assay on ASPC1 [12], 27.3%; in the assay on ASPC1 [13] it was 9.1%; in the assay on ASPC1 [14] it was 9.6%. Also, the Activity was found to be 9.5% in the assay on ASPC1 [15]; 10.1% in the assay on ASPC1 [16]; 10.5% in the assay on ASPC1 [17]; 14.9% with ASPC1 [18]; 14.7% in the assay with ASPC1 [19]; 24.1% in the assay on ASPC1 [20]. Moreover, the Activity came to 23.4% with ASPC1 [21] and 28.8% with ASPC1 [22]. The outcome with ASPC1 [23], in the assay with ASPC1 [24] and in the assay with ASPC1 [26] was Active. The outcome in the assay on ASPC1 [25] was inactive.
As to `COC(=O)[C@]12CC[C@@H](C)[C@H](C)[C@H]1C1=CC(=O)[C@@H]3[C@@]4(C)C/C(=C/n5ccnc5)C(=O)C(C)(C)[C@@H]4CC[C@@]3(C)[C@]1(C)CC2`, the IC50 in the assay with ASPC1 [1] was determined as 2.3 µM; with PANC-1 it was 18.2 µM; in the assay with MIA PaCa-2 it was 24.3 µM; in the assay on HepG2 it was 27.6 µM; in the assay on MCF7 it was 9.4 µM; with A549 it was 12.2 µM. In the assay on PC-3, this molecule came in with an IC50 of 12.9 µM.

As usually defined, the IC50 is the point on the concentration scale where inhibition reaches its midpoint. A lower IC50 goes with inhibition by little substance.
